The values that follow come from patent publication US20080318892A1, “METHODS AND FORMULATIONS FOR PROTECTING CELLS, AND FOR TREATING DISEASES AND CONDITIONS BY OPTIMIZING THE INTRACELLULAR CONCENTRATION OF NAD” (priority 2007, published 2008).

Assay [1] concerns microvessels invested by human SMC's. Nature of the assay: Human-mouse chimeric angiogenesis in vivo (matrigel implants). Details: species or system SCID mice. The note with it: matrigel implants with PBEF-overexpressing SMC's, 8 days; p<0.05 vs vector. The procedure: Human-Mouse Chimeric Angiogenesis in vivo was measured. HITC6 SMCs in M199 with 10% FBS and fibroblast growth factor-2 (FGF-2) were mixed with an equal volume of growth factor-reduced matrigel (BD Discovery Labware) yielding final concentrations of 5×10^5 cells/ml and 250 ng/ml FGF-2. The cell-matrigel suspension (500 μl) was subcutaneously injected into the abdomen of mice with severe combined immunodeficiency syndrome (SCID). After 8 days, implants were harvested, fixed for 8 h in Tris-buffered zinc (32), and paraffin-embedded tissues were sectioned at 5 μm. […] Tissue was then incubated with rabbit anti-GFP (1:200, BD Clontech, Palo Alto, Calif.) and bound primary antibody detected with alkaline phosphatase-conjugated goat anti-rabbit secondary antibody and visualized with red alkaline phosphatase substrate (Vector). […]
Human-Mouse Chimeric Angiogenesis in vivo was measured. […] Tissue was then incubated with rabbit anti-GFP (1:200, BD Clontech, Palo Alto, Calif.) and bound primary antibody detected with alkaline phosphatase-conjugated goat anti-rabbit secondary antibody and visualized with red alkaline phosphatase substrate (Vector). […]

For assay [2], the system named is primary human vascular SMCs. Nature of the assay: Replicative lifespan (cumulative population doublings) of primary SMCs. The note with it: primary adult SMCs overexpressing Nampt. It is filed as cell-based.

For the substance “PBEF: 52-55 kD protein, rate-limiting enzyme for NAD+ biosynthesis from nicotinamide; tested by retroviral cDNA overexpression in cells”, the “proportion of microvessels invested by one or more human SMC's” value in assay [1] is on record as 17.8±2.5%. Moreover, the “additional population doublings beyond vector-infected SMCs” value in assay [2] is listed as 2.1±0.3 population doublings. In assay [2] (p=0.01), this substance yielded a prolongation of lifespan of 34±4%.
